No end group written: not given here.
What was measured:
P. aeruginosa TISTR 357 [1] = assay type: cell-based, Pseudomonas aeruginosa; details: TISTR 357, 24 h
Experimental: (§1) The MIC and MBC of the purified AMP were determined using the broth microdilution method following the guidance provided by the Clinical and Laboratory Standards Institute (CLSI). P. aeruginosa TISTR 357 and K. pneumoniae TISTR 1383 were cultured on MH agar and incubated at 37 °C for 18 h. A single colony of the tested bacteria was suspended in 0.85% NaCl until the suspension turbidity reached an OD of 0.1 at 625 nm. The cells were then diluted to 5 × 10^6 CFU/mL using cation-adjusted Mueller Hinton broth (CAMHB). The diluted cell suspension of 10 µL was transferred into each well of a 96-well plate with a final volume of 100 µL per well. The AMP was added to achieve final concentrations ranging from 0.125 to 64 µg/mL. Colistin was used as the positive control, while antibiotic-free samples were used as negative controls. The 96-well plate was incubated at 37 °C for 24 h. Each strain was tested in triplicate. […] Subsequently, 100 µL of each dilution was spread on MH agar and then incubated at 37 °C for 24 h. The MBC was identified as the lowest concentration at which no bacterial colony growth was observed on the agar plate.

K. pneumoniae TISTR 1383 [2] = assay type: cell-based, Klebsiella pneumoniae; details: TISTR 1383, 24 h
Experimental: as §1

P. aeruginosa TISTR 357 [3] = assay: Time-kill assay; assay type: cell-based, Pseudomonas aeruginosa; details: for reduction rate of viable cells: from initial treatment until eradication, 5 × 10^5 CFU/mL, CAMHB, 37 °C
Experimental: (§2) P. aeruginosa TISTR 357 and K. pneumoniae TISTR 1383 were separately adjusted to an initial treatment cell density of 5 × 10^5 CFU/mL with CAMHB. The experiment preparation followed the microdilution assay procedures. […] The reactions were carried out at 37 °C, followed by spreading the entire volume from each well in each treatment condition on MH agar at specific time intervals (0–24 h). The plates were placed in a 37 °C incubator for 24 h before counting the colonies. The trends in bacterial reduction were graphically depicted using a logarithmic scale of viable cells. The bacterial cell reduction was determined within 24 h. Each experiment was performed in triplicate on the 96-well plates.

K. pneumoniae TISTR 1383 [4] = assay: Time-kill assay; assay type: cell-based, Klebsiella pneumoniae; details: for reduction rate of viable cells: 5 × 10^5 CFU/mL, CAMHB, 37 °C
Experimental: as §2

K. pneumoniae TISTR 1383 [5] = assay: Sytox Green uptake assay (cell membrane permeability); assay type: cell-based, Klebsiella pneumoniae; details: 2× MIC; Sytox Green 10 µM, over 24 h; mean ± SD, triplicate
Experimental: The cell suspension was diluted with the diluent until the OD at 625 nm was equal to 0.1 (1.5 × 10^8 CFU/mL). An aliquot of the diluted cells (100 μL) was introduced into each well and incubated with 10 μM of Sytox Green (Thermo Fisher Scientific Inc., Waltham, MA, USA) in the dark for 15 min. […] After the introduction of the AMP, the cell membrane permeability of treated bacteria was evaluated by monitoring the fluorescence intensity resulting from the penetration of Sytox Green across the compromised cell membrane and subsequently binding to nucleic acid. […] Significant differences in fluorescence intensity of overall time points were analyzed by one-way ANOVA (p-value < 0.05) and post hoc Tukey’s test for multiple comparisons between treated and non-treated conditions [52].

P. aeruginosa TISTR 357 [6] = assay: Stability against temperatures, residual antibacterial activity; assay type: physicochemical, Pseudomonas aeruginosa; details: AMP 16 µg/mL, agar well diffusion read-out, % of non-treated AMP, mean ± SD, n = 3
Experimental: (§3) The AMP was dissolved in sterile purified water and adjusted a final concentration to 16 µg/mL. The sensitivity of the AMP to temperatures of 37, 40, 50, 60, 80, and 100 °C, as well as autoclaving at 121 °C for 15 and 30 min was evaluated. The sensitivity of the AMP to proteolytic enzymes with different digesting characteristics was studied by incubating with a concentration of 1 mg/mL of proteinase K, trypsin, and α-chymotrypsin (Sigma-Aldrich, Warren, MI, USA). The compatibility of the AMP with surfactants was evaluated by exposing the AMP to 1% SDS or 1% Triton X-100 (AppliChem GmbH, Darmstadt, Germany). The degradation of the AMP under various pH conditions, including physiological and extended alkaline conditions, was evaluated by adjusting the pH of the solution to 1.2, 4.5, 6.8, 7.4, 8.0, 10.0, 12.0, and 14.0. After incubation, the pH of the AMP solution was neutralized to the original pH before being assessed for antibacterial activity. The antibacterial assay against P. aeruginosa TISTR 357 was conducted using the agar well diffusion assay in triplicate. The stability profiles are presented as the percentage of the residual activity compared with the non-treatment conditions (mean ± SD), and statistical significance was determined by the Student’s t-test at a p-value < 0.05.

P. aeruginosa TISTR 357 [7] = assay: Compatibility with surfactants, residual antibacterial activity; assay type: physicochemical, Pseudomonas aeruginosa; details: with 1% SDS, AMP 16 µg/mL, agar well diffusion read-out, % of non-treated AMP, mean ± SD, n = 3
Experimental: as §3

VKGDGGPGTVYTM [NNS5-6 AMP]
MBC (P. aeruginosa TISTR 357 [1]): 4 µg/mL | MIC (P. aeruginosa TISTR 357 [1]): 4 µg/mL | MBC (K. pneumoniae TISTR 1383 [2]): 8 µg/mL | MIC (K. pneumoniae TISTR 1383 [2]): 4 µg/mL | reduction rate of viable cells (P. aeruginosa TISTR 357 [3]; 1× MIC): 0.6297 log CFU/h | treatment time to eradication of viable cells (P. aeruginosa TISTR 357 [3]; 1× and 2× MIC): 8 h | reduction rate of viable cells (P. aeruginosa TISTR 357 [3]; 2× MIC): 0.6421 log CFU/h | reduction of viable cells (K. pneumoniae TISTR 1383 [4]; 1× MIC, until 24 h of treatment, growth only suppressed): up to 2 log (CFU/mL) | reduction rate of viable cells (K. pneumoniae TISTR 1383 [4]; 1× MIC): 0.0579 log CFU/h | treatment time to eradication of viable cells (K. pneumoniae TISTR 1383 [4]; 2× MIC): ≤ 8 h | reduction rate of viable cells (K. pneumoniae TISTR 1383 [4]; 2× MIC): 0.5715 log CFU/h | fold increase in fluorescence intensity compared with non-treatment (K. pneumoniae TISTR 1383 [5]): 3.21 ± 0.29 fold | % Residual Activity of NNS5-6 AMP against P. aeruginosa TISTR 357 (P. aeruginosa TISTR 357 [6]; 37 °C, 1 h): 99.39 ± 1.98% | % Residual Activity of NNS5-6 AMP against P. aeruginosa TISTR 357 (P. aeruginosa TISTR 357 [6]; 37 °C, 6 h): 99.39 ± 0.61% | % Residual Activity of NNS5-6 AMP against P. aeruginosa TISTR 357 (P. aeruginosa TISTR 357 [6]; 37 °C, 12 h): 99.69 ± 0.95% | % Residual Activity of NNS5-6 AMP against P. aeruginosa TISTR 357 (P. aeruginosa TISTR 357 [6]; 40 °C, 1 h): 99.80 ± 0.94% | % Residual Activity of NNS5-6 AMP against P. aeruginosa TISTR 357 (P. aeruginosa TISTR 357 [6]; 40 °C, 6 h): 99.19 ± 0.93% | % Residual Activity of NNS5-6 AMP against P. aeruginosa TISTR 357 (P. aeruginosa TISTR 357 [6]; 40 °C, 12 h): 99.07 ± 0.72% | % Residual Activity of NNS5-6 AMP against P. aeruginosa TISTR 357 (P. aeruginosa TISTR 357 [6]; 50 °C, 1 h): 65.16 ± 3.07 % | % Residual Activity of NNS5-6 AMP against P. aeruginosa TISTR 357 (P. aeruginosa TISTR 357 [6]; 50 °C, 6 h): 0.00 ± 0.00 % | % Residual Activity of NNS5-6 AMP against P. aeruginosa TISTR 357 (P. aeruginosa TISTR 357 [6]; 50 °C, 12 h): 0.00 ± 0.00 % | % Residual Activity of NNS5-6 AMP against P. aeruginosa TISTR 357 (P. aeruginosa TISTR 357 [6]; 60 °C, 1 h): 0.00 ± 0.00 % | % Residual Activity of NNS5-6 AMP against P. aeruginosa TISTR 357 (P. aeruginosa TISTR 357 [6]; 60 °C, 6 h): 0.00 ± 0.00 % | % Residual Activity of NNS5-6 AMP against P. aeruginosa TISTR 357 (P. aeruginosa TISTR 357 [6]; 60 °C, 12 h): 0.00 ± 0.00 % | % Residual Activity of NNS5-6 AMP against P. aeruginosa TISTR 357 (P. aeruginosa TISTR 357 [6]; 80 °C, 1 h): 0.00 ± 0.00 % | % Residual Activity of NNS5-6 AMP against P. aeruginosa TISTR 357 (P. aeruginosa TISTR 357 [6]; 80 °C, 6 h): 0.00 ± 0.00 % | % Residual Activity of NNS5-6 AMP against P. aeruginosa TISTR 357 (P. aeruginosa TISTR 357 [6]; 80 °C, 12 h): 0.00 ± 0.00 % | % Residual Activity of NNS5-6 AMP against P. aeruginosa TISTR 357 (P. aeruginosa TISTR 357 [6]; 100 °C, 1 h): 0.00 ± 0.00 % | % Residual Activity of NNS5-6 AMP against P. aeruginosa TISTR 357 (P. aeruginosa TISTR 357 [6]; 100 °C, 6 h): 0.00 ± 0.00 % | % Residual Activity of NNS5-6 AMP against P. aeruginosa TISTR 357 (P. aeruginosa TISTR 357 [6]; 100 °C, 12 h): 0.00 ± 0.00 % | % Residual Activity of NNS5-6 AMP against P. aeruginosa TISTR 357 (P. aeruginosa TISTR 357 [6]; autoclave 121 °C, 15 psi, 15 min (same value in 1 h, 6 h and 12 h)): 0.00 ± 0.00 % | % Residual Activity of NNS5-6 AMP against P. aeruginosa TISTR 357 (P. aeruginosa TISTR 357 [6]; autoclave 121 °C, 15 psi, 30 min (same value in 1 h, 6 h and 12 h)): 0.00 ± 0.00 % | % Residual Activity of NNS5-6 AMP against P. aeruginosa TISTR 357 (P. aeruginosa TISTR 357 [7]; 1 h): 116.77 ± 1.80 % | % Residual Activity of NNS5-6 AMP against P. aeruginosa TISTR 357 (P. aeruginosa TISTR 357 [7]; 6 h): 122.52 ± 1.86 %
